Results published in publication PMC5725665, “Discovery of a Highly Selective Cell‐Active Inhibitor of the Histone Lysine Demethylases KDM2/7” (Angewandte Chemie (International Ed. in English), 2017).

Assays:
Test in all cases: biochemical
Design in all cases: AlphaScreen histone demethylase activity assay
JARID1C (KDM5C) = JARID1C (KDM5C) (Homo sapiens, UniProt P41229)
Description: (§1) A base‐mediated 5‐endo‐trig cyclization of a C‐2‐substituted aromatic imine afforded the racemic indoline core with two adjacent stereocenters. Subsequent acylation of the indoline ring system conferred stability towards oxidation and provided a handle for modulating polarity. Finally, metal‐catalysed cross‐coupling of the aryl bromide provided access to a variety of linkers between the indoline core and pyrrolidine capping group. In total, 45 racemic compounds were synthesized, and IC50 values for inhibition of KDM2A were determined using two orthogonal enzyme activity assays: AlphaScreen25 and RapidFire MS26 (see Section S3.1 in the Supporting Information for complete inhibition data). Key structure–activity relationships are summarized below (Scheme 1 B, compounds 2–12). […] In immunofluorescence assays using HeLa cells ectopically expressing catalytically active KDM2A, a dose‐dependent increase in H3K36me2 staining was observed upon incubation with (S,S)‐6, reflecting augmented cellular H3K36me2 levels (Figure 2 A and Section S3.3). […] To profile its selectivity, (S,S)‐6 was tested for inhibitory activity against a panel of KDMs, methyllysine binding motifs, and epigenetic enzymes.

JARID1A (KDM5A) = JARID1A (KDM5A) (Homo sapiens, UniProt P29375)
Description: as §1

JMJD1A (KDM3A) = molecular target: T1, JMJD1A (KDM3A) (Homo sapiens, UniProt Q9Y4C1)
T1 sequence (Q9Y4C1 1-1321): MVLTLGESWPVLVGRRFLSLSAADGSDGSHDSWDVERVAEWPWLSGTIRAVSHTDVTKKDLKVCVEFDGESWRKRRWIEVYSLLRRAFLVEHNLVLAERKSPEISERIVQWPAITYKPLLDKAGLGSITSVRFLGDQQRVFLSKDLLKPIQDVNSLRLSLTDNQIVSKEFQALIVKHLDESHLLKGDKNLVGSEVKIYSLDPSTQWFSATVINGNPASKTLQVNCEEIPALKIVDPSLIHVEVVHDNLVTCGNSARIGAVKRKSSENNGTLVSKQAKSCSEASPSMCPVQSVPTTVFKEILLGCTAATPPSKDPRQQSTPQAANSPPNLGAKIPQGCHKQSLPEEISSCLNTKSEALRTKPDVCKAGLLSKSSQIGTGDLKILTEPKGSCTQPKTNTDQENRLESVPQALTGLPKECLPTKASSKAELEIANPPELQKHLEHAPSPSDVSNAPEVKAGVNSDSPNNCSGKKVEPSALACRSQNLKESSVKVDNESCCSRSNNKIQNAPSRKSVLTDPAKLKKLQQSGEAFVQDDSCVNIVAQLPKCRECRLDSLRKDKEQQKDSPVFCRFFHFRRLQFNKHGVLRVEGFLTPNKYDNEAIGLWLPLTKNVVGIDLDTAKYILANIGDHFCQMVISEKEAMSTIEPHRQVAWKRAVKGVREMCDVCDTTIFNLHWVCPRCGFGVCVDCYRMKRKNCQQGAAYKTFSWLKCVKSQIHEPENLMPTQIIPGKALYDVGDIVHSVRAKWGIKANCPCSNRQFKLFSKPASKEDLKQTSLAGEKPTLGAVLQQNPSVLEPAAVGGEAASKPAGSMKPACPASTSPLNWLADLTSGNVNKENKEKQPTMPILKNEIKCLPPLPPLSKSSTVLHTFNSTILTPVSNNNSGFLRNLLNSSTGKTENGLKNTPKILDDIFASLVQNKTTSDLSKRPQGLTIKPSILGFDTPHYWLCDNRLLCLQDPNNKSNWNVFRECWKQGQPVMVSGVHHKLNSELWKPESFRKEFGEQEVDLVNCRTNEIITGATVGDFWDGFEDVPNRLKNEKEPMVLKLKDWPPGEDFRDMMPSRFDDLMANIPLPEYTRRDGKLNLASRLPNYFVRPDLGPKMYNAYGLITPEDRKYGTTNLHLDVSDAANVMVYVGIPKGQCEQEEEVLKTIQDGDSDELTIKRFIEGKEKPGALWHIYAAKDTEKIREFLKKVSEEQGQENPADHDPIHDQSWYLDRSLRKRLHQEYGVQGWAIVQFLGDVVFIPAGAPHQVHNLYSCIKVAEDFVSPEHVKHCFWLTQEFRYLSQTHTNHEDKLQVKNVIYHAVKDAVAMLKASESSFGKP
Description: as §1

JMJD2D (KDM4D) = molecular target: T2, JMJD2D (KDM4D) (Homo sapiens, UniProt Q6B0I6)
T2 sequence (Q6B0I6 1-523): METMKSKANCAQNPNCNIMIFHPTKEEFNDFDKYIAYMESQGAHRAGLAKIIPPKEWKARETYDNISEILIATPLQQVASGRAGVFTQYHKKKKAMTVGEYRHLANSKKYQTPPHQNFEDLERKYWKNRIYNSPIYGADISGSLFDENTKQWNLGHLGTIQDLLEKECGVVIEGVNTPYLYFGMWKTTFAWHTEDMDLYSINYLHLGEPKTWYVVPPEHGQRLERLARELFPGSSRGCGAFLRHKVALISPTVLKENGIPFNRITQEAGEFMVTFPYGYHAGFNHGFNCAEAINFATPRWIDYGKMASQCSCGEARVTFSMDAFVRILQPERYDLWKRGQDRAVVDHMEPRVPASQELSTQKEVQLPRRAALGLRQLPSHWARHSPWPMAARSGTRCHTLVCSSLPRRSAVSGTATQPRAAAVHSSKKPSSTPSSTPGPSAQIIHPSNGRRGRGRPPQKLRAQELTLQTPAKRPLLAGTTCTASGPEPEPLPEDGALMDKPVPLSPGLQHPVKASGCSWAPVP
Description: as §1

JMJD2C (KDM4C) = molecular target: T3, JMJD2C (KDM4C) (Homo sapiens, UniProt Q9H3R0); conditions: read-out: KDM4C % Inhib. (10 uM)
T3 sequence (Q9H3R0 1-1056): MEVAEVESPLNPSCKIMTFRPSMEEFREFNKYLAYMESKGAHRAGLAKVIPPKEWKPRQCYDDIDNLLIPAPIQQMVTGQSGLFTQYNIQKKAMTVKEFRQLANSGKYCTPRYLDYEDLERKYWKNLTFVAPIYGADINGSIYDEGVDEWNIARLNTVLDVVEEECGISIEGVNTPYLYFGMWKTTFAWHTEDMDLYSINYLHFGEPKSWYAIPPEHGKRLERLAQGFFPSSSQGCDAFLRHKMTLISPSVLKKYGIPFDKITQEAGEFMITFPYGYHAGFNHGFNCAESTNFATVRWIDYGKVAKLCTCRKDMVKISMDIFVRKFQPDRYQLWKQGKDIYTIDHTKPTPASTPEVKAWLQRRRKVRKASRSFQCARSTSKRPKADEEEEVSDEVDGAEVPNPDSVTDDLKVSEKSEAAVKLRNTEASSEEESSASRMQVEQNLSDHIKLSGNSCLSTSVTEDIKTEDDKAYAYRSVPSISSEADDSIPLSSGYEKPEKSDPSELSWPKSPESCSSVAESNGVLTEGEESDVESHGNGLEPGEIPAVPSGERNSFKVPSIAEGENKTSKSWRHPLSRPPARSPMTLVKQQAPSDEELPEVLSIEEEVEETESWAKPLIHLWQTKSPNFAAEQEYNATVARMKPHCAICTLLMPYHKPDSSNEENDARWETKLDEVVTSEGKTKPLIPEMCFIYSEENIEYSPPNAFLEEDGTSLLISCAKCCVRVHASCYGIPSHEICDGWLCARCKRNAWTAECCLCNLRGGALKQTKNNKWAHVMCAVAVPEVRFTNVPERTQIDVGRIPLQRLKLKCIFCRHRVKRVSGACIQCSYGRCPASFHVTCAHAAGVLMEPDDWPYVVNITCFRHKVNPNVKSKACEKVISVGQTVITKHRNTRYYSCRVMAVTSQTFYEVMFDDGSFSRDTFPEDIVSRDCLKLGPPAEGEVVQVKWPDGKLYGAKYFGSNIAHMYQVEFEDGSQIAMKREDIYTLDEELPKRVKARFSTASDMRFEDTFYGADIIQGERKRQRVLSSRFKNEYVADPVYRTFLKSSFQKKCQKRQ
Description: as §1

JMJD2A (KDM4A) = molecular target: T4, JMJD2A (KDM4A) (Homo sapiens, UniProt O75164); conditions: read-out: KDM4A % Inhib. (10 uM)
T4 sequence (O75164 1-1064): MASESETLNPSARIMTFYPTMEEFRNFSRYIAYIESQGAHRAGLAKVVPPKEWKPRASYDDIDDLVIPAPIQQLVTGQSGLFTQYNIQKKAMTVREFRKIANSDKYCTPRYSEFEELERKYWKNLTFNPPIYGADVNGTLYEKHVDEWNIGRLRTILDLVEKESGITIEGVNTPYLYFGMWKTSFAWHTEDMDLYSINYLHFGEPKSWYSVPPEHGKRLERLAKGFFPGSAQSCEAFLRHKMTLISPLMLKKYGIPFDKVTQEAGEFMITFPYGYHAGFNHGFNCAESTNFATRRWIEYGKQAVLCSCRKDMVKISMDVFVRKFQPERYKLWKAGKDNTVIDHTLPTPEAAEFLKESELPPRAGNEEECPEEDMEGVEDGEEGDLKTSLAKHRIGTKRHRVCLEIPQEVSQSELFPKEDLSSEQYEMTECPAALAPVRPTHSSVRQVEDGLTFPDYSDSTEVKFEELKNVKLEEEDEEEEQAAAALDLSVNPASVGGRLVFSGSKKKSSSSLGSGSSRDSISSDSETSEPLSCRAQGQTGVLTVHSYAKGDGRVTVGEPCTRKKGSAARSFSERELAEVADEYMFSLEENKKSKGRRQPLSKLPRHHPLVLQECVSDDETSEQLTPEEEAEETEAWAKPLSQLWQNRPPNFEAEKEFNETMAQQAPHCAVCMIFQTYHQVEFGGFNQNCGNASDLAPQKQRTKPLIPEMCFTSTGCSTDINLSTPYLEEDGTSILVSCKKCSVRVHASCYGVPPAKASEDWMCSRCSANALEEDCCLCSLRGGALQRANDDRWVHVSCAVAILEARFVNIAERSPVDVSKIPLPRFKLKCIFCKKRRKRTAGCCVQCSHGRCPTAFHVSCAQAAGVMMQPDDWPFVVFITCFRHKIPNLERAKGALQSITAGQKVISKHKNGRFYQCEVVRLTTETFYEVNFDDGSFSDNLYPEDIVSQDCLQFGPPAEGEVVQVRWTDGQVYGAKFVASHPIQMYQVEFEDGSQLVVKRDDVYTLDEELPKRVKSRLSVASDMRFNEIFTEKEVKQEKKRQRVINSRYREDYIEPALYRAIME

Chain of JARID1A (KDM5A) (P29375 whole entry): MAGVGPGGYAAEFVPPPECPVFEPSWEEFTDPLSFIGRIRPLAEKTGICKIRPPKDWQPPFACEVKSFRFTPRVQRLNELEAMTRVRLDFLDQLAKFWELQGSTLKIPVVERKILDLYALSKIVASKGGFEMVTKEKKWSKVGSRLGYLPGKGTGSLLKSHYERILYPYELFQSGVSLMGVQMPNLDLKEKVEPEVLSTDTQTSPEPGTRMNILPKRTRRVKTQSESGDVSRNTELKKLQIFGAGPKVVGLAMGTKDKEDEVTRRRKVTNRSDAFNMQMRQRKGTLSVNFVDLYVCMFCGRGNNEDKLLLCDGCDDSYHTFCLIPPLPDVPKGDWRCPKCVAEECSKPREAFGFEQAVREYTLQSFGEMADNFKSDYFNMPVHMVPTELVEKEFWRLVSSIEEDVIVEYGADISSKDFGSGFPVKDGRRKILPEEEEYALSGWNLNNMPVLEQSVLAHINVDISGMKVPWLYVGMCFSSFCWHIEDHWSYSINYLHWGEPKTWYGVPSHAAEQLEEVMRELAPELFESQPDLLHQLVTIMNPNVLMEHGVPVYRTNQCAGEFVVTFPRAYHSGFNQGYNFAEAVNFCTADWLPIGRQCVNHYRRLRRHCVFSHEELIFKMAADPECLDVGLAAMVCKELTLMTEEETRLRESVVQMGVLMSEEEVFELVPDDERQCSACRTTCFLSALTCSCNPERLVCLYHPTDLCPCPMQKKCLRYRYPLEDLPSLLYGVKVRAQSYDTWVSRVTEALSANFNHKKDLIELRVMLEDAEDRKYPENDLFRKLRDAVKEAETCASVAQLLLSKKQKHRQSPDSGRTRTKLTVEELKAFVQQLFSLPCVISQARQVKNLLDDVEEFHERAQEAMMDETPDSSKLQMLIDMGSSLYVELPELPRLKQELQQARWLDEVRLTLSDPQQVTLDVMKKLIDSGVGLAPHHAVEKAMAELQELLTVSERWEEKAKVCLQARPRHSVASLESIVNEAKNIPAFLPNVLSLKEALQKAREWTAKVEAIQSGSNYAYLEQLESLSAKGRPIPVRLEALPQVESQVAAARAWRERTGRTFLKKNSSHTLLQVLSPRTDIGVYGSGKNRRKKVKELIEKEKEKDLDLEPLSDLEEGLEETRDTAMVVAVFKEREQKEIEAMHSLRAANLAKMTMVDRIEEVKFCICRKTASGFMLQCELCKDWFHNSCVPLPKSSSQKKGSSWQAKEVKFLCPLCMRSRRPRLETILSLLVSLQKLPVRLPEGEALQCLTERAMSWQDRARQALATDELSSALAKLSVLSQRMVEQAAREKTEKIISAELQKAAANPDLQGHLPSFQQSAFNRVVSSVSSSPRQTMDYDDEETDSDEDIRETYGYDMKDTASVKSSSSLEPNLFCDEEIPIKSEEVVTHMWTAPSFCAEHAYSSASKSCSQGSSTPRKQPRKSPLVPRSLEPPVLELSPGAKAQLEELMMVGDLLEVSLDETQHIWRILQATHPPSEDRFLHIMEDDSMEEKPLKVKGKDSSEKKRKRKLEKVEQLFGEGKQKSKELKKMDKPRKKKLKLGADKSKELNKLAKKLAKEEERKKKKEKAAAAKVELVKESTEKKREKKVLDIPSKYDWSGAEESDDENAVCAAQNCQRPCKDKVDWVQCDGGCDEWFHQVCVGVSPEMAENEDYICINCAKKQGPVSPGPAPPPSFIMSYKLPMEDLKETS
Chain of JARID1C (KDM5C) (P41229 whole entry): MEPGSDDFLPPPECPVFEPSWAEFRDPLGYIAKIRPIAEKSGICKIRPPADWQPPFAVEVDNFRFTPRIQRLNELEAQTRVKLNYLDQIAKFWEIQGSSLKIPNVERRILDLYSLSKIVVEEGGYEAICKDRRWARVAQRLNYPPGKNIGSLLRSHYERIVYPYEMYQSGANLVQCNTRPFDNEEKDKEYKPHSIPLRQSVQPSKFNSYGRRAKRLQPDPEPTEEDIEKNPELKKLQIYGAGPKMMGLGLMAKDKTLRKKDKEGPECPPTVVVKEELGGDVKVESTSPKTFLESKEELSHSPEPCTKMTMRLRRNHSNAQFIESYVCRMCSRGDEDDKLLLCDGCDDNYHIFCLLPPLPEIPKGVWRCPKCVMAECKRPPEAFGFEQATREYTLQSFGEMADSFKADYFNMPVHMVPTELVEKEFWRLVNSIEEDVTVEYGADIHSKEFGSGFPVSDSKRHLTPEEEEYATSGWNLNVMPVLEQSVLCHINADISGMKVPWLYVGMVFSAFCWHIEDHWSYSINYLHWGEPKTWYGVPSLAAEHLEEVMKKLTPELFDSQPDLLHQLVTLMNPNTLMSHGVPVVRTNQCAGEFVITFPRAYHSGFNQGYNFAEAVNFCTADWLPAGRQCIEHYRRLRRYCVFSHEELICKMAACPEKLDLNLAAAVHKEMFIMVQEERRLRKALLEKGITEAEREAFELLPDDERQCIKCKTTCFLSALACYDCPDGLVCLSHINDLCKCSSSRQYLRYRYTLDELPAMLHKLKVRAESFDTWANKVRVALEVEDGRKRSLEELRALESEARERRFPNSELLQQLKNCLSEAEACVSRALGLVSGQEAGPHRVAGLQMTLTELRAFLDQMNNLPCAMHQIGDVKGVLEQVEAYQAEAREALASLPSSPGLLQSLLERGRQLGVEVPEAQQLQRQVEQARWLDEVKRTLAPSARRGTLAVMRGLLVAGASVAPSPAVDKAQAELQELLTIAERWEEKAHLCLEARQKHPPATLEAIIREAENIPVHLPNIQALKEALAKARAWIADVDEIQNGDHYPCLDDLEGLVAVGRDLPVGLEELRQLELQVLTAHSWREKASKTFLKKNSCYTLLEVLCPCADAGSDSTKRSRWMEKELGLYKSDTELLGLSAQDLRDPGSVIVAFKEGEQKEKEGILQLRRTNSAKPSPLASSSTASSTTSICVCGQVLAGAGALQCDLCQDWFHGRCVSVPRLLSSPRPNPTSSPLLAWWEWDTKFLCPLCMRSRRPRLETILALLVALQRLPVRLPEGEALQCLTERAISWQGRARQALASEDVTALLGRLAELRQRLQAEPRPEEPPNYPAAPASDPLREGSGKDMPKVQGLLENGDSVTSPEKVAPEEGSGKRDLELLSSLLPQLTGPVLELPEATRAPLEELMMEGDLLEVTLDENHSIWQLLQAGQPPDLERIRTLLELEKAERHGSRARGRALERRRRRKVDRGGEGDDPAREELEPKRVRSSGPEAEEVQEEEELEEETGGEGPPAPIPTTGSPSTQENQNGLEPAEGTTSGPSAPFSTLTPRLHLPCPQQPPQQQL

Row | SMILES | inhibition at 100 µM (JARID1C (KDM5C)) [%] | inhibition at 50 µM (JARID1A (KDM5A)) [%] | inhibition at 100 µM (JMJD1A (KDM3A)) [%] | inhibition at 10 µM (JMJD2D (KDM4D)) [%] | inhibition at 10 µM (JMJD2C (KDM4C)) [%] | inhibition at 10 µM (JMJD2A (KDM4A)) [%]
1 | CC(=O)N1c2ccccc2C(C#N)(c2ccccc2)C1c1cncc(-c2cn(CCCCCN3CCCC3)nn2)c1 (stereo not shown) [compound 119, 119] | 46.7 | 39.5 | 21.1 |  |  | 
2 | CC(=O)N1c2ccccc2C(C#N)(c2ccccc2)C1c1ccc(CCCCCCCN2CCCC2)o1 (stereo not shown) [compound 138, 138] |  | 46.6 |  | 14.4 | 32.3 | 24.4
3 | CC(=O)N1c2ccccc2[C@](C#N)(c2ccccc2)[C@H]1c1cncc(/C=C/CCCCCN2CCCC2)c1 (racemic) [compound 5, 5] | 32.3 | 39.1 | 15.1 ± 9.5 |  |  | 
